Measurements from ChEMBL document CHEMBL3813619, “Feeling Nature's PAINS: Natural Products, Natural Product Drugs, and Pan Assay Interference Compounds (PAINS)” (J Nat Prod, 2016).

Experiments:
[1] = Selectivity ratio of mouse Kv1.3 to ratio of KCa3.1 (unknown origin)
[2] = biological target: Potassium voltage-gated channel subfamily A member 3 (Mus musculus, UniProt P16390); experiment: Inhibition of mouse Kv1.3 expressed in L929 cells at -80 mV holding potential by whole cell patch-clamp method; format: cell-based
Rattus norvegicus = experiment: Antiinflammatory activity in po dosed rat assessed as inhibition of reverse passive arthus reaction; format: functional

Chain of Potassium voltage-gated channel subfamily A member 3 (P16390 whole entry): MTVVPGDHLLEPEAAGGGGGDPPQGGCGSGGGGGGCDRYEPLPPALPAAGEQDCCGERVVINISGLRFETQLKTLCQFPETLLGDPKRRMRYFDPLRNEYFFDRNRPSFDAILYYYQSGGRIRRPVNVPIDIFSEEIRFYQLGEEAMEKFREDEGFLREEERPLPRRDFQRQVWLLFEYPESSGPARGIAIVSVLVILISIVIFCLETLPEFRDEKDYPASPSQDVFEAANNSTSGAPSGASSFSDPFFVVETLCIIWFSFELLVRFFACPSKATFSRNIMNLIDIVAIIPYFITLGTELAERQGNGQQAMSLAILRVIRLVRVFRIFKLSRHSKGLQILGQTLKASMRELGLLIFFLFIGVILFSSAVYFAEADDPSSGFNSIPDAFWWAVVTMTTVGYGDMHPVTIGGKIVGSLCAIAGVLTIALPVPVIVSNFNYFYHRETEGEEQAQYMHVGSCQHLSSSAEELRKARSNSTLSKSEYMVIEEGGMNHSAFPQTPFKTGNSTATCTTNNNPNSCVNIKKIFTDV

Row | Compound | Selectivity ratio [1] | EC50 [2] [nM] | ED50 (Rattus norvegicus) [mg/kg]
1 | COc1c(C(C)=O)c(O)c(OCCCc2ccccc2)c2occc12 | 10 | 1000 | –
2 | Cc1cc(=O)c2c(O)cc(O)c([C@H]3CCN(C)C[C@H]3O)c2o1 [ROHITUKINE] | – | – | 2.5
